Experimental data taken from ChEMBL document CHEMBL3045028, “Synthesis, AntiBacteriol, and Antifungal Activities of Some New Benzimidazoles” (1992).
Active and inactive are the calls of the source. The rule behind the calls is not given here.

Tests used:
Format in all cases: functional
[1] = test system: Agrobacterium tumefaciens; test: In vivo antibacterial activity against Agrobacterium tumefaciens infected carrots assessed as effective at 0.01%
Alternaria alternata = test: In vivo antifungal activity against Alternaria tenuis; set-up: concentration or dose not given beside the values
Agrobacterium sp. = test: In vitro antibacterial activity against Agrobacterium radiobacter pv. tumefaciens assessed as inhibition at 0.1 %
[2] = test system: Xanthomonas campestris pv. campestris; test: In vitro antibacterial activity against Xanthomonas campestris pv. campestris KF2 assessed as inhibition at 0.1 %
[3] = test system: Xanthomonas euvesicatoria; test: In vitro antibacterial activity against Xanthomonas euvesicatoria P-2092 assessed as inhibition at 0.1 %
Botrytis cinerea = test: In vitro antifungal activity against Botryotinia fuckeliana assessed as inhibition at 0.1 %
Pseudomonas viridiflava = test: In vitro antibacterial activity against Pseudomonas viridiflava 8 assessed as inhibition at 0.1 %
[4] = test system: Pseudomonas savastanoi pv. glycinea; test: In vitro antibacterial activity against Pseudomonas syringae pv. glycinea S1 assessed as inhibition at 0.1 %
[5] = test system: Pseudomonas savastanoi pv. phaseolicola; test: In vitro antibacterial activity against Pseudomonas syringae pv. phaseolicola E81 assessed as inhibition at 0.1 %
[6] = test system: Xanthomonas phaseoli pv. phaseoli; test: In vitro antibacterial activity against Xanthomonas campestris pv. phaseoli assessed as inhibition at 0.1 %

| SMILES | Efficacy [1] [%] | Efficacy (Alternaria alternata) [%] | diameter of the inhibition zone (DIZ) (Agrobacterium sp.) [cm] | diameter of the inhibition zone (DIZ) [2] [cm] | diameter of the inhibition zone (DIZ) [3] [cm] | diameter of the inhibition zone (DIZ) (Botrytis cinerea) [cm] | inhibition (Botrytis cinerea) | diameter of the inhibition zone (DIZ) (Pseudomonas viridiflava) [cm] | diameter of the inhibition zone (DIZ) [4] [cm] | inhibition [5] | diameter of the inhibition zone (DIZ) [6] [cm] | inhibition (Pseudomonas viridiflava) | diameter of the inhibition zone (DIZ) [5] [cm] | inhibition [6] | inhibition [3] | inhibition [2] |
| --- | --- | --- | --- | --- | --- | --- | --- | --- | --- | --- | --- | --- | --- | --- | --- | --- |
| Cc1cc2ncn(Cc3cccc(F)c3)c2cc1C | 70 | 50 | 3 | 3 | 3 |  |  |  |  |  |  |  |  |  |  |  |
| CCCCn1c(N)nc2cc(C)c(C)cc21 |  | 100 | 3 | 2 | 2 |  |  |  |  |  |  |  |  |  |  |  |
| CCCCn1c(N)nc2ccccc21 | 30 | 50 | 3 | 3 | 3 | 3 |  |  |  |  |  |  |  |  |  |  |
| Nc1nc2ccccc2n1Cc1cccc(Cl)c1 |  | 50 |  | 3 | 3 |  | inactive | 3 | 2 | inactive | 3 |  |  |  |  |  |
| COc1cccc(Cn2c(N)nc3cc(C)c(C)cc32)c1 |  | 100 |  |  |  |  |  |  |  |  |  |  |  |  |  |  |
| Cc1cccc(Cn2c(N)nc3ccccc32)c1 |  | 100 | 2 | 3 | 3 |  |  |  |  |  |  |  |  |  |  |  |
| COc1cccc(Cn2c(N)nc3ccccc32)c1 |  | 100 | 3 | 3 | 3 |  |  |  |  |  |  |  |  |  |  |  |
| Cc1cc2ncn(Cc3ccccc3Cl)c2cc1C |  | 50 |  | 1 |  | 1 |  |  | 1 |  |  | inactive | 1 | inactive | inactive |  |
| Cc1ccc(Cn2c(/N=C/c3ccc([N+](=O)[O-])o3)nc3ccccc32)cc1 | 70 |  |  |  |  | 1 |  |  | 1 | inactive |  | inactive |  | inactive | inactive | inactive |
| O=[N+]([O-])c1ccc(/C=N/c2nc3ccccc3n2Cc2cccc(Cl)c2)o1 | 100 |  |  |  | 3 | 1 |  |  | 1 | inactive |  | inactive |  | inactive |  | inactive |
